Patent US8530679B2, “Delta 9—tetrahydrocannabinol processing” (Resolution Chemicals Limited, priority 2007, dated 2013)

Key:
[1] = cited from earlier work; for psychomimetic activity: constituents of cannabis
[2] = susceptible to rearrangement and oxidation; cited from earlier work
[3] = stability of Δ9-THC on handling and storage; conditions: solution prepared below room temperature, typically below 0° C., in some instances −40° C. and even −78° C.

| Structure (SMILES) | psychomimetic activity [1] | psychomimetic activity relative to Δ8-THC ([1]; greater than Δ8-THC) [times] | stability at room temperature [2] | stability / degradation in solution of low boiling point solvent [3] |
| --- | --- | --- | --- | --- |
| CCCCCc1cc2c(c(O)c1C(=O)O)[C@@H]1C=C(C)CC[C@H]1C(C)(C)O2 [THCA-A, Δ9-THC carboxylic acid] | psychomimetically inactive |  |  |  |
| CCCCCc1cc(O)c2c(c1)OC(C)(C)[C@@H]1CCC(C)=C[C@@H]21 [Δ9-THC, Δ9-tetrahydrocannabinol] |  | 20 | relatively unstable | no significant degradation |
| C=C(C)[C@@H]1CCC(C)=C[C@H]1c1c(O)cc(CCCCC)cc1O [Cannabidiol] | little activity |  |  |  |
